Patent US20090239949A1, “Polar Hydrophilic Prodrugs of Amphetamine and Other Stimulants and Processes for Making and Using the Same” (priority 2007, published 2009)

Assays:
[1] = Intranasal pharmacokinetic study of d-amphetamine, hArg-Amp and Lys-Amp (Example 15); settings: for % Tmax: relative to d-amp
[2] = Intravenous pharmacokinetic study of d-amphetamine, hArg-Amp and Lys-Amp (Example 16); settings: for % Tmax: relative to d-amp
[3] = Oral pharmacokinetic study of Lys-Amp, Sar-Amp, hCit-Amp and hArg(NO2)-Amp (Example 14); settings: for Cmax: plasma d-amphetamine, n=5
[4] = Oral pharmacokinetic study of Cit-Amp vs Lys-Amp (Example 13); settings: for % Tmax: relative to Lys-Amp
[5] = Average results of oral pharmacokinetic studies of hArg-Amp vs Lys-Amp (Table 3); settings: relative to Lys-Amp
[6] = Oral pharmacokinetic study of hArg-Amp vs Lys-Amp, plasma d-amphetamine by ELISA (Example 12); settings: relative to Lys-Amp
[7] = Pharmacokinetics of d-amphetamine after parenteral (intranasal, intravenous) administration of hArg-Amp (Example 1); settings: parental routes (intranasal, intravenous)

C[C@H](N)Cc1ccccc1 [d-amp, d-amphetamine]
% Tmax ([1]; intranasal): 100%
Tmax ([1]; male, Sprague-Dawley, rat, in vivo, inhaled or intranasal, […]): 5 min
% Tmax ([2]; intravenous): 100%
Tmax ([2]; male, Sprague-Dawley, rat, in vivo, iv, […]): 5 min

l-homocitrulline-d-amphetamine hydrochloride [hCit-Amp]
Cmax [3]: 57 ng/mL

C[C@@H](Cc1ccccc1)NC(=O)[C@@H](N)CCCCNC(N)=N[N+](=O)[O-] [hArg(NO2)-Amp, l-homoarginine(NO2)-d-amphetamine]
Cmax [3]: 59 ng/mL

l-lysine-d-amphetamine [Lys-Amp]
Cmax ([4]; plasma d-amphetamine, n=5): 59 ng/mL
% Tmax [4]: 100%
% Tmax [5]: 100%
% Tmax ([1]; intranasal): 3600%
% Tmax ([2]; intravenous): 100%
Cmax [3]: 54 ng/mL
% Tmax ([3]; relative to Lys-Amp): 100%
% Tmax [6]: 100%

C[C@@H](Cc1ccccc1)NC(=O)[C@@H](N)CCCNC(N)=O.Cl [Cit-Amp, 1-citrulline-d-amphetamine hydrochloride]
% Tmax [4]: 25%

sarcosine-d-amphetamine [Sar-Amp]
Cmax [3]: 45 ng/mL

C[C@@H](Cc1ccccc1)NC(=O)[C@@H](N)CCCCN=C(N)N.Cl.Cl [hArg-Amp, l-homoarginine-d-amphetamine dihydrochloride]
% Tmax [5]: 200-400%
Tmax ([1]; intranasal, plasma d-amphetamine): 30 min
% Tmax ([1]; intranasal): 600%
Tmax ([2]; intravenous, plasma d-amphetamine): 5 m
% Tmax ([2]; intravenous): 100%
release of amphetamine [7]: < 25%
